Data taken from patent publication US7416885B2, “Proliferated cell lines and uses thereof” (University of South Florida, priority 2002, dated 2008).

Legend:
RCVC cells = test: 45Ca2+ influx in RCVC cells; assay type: cell-based, rat; conditions: normally polarized cells
RCSN-3 cells [1] = test: melanin fluorescence in RCSN-3 cells preincubated with L-Dopa; assay type: cell-based, rat; conditions: for melanin, mean: L-DOPA, n 3 (ANOVA summary); for melanin, Average: L-DOPA (+), 100 microM, 24 hrs
Experimental: RCSN-3 cells were preincubated for 24 hrs in the presence of 100 microM L-Dopa. Cells were lysed with a hypotonic buffer. […] Oxidation of melanin in vitro degraded the melanin polymer, resulting in a fluorescent solution. Fluorescence spectroscopy gave an excitation maximum at approximately 470 nm and an emission maximum at approximately 540 nm for both natural and synthetic melanin. Increasing the time of exposure to light or hydrogen peroxide increased melanin fluorescence (Kayatz, P et al., Invest Ophthalmol Vis Sci, January 2001,42(1):241–6).

RCSN-3 cells [2] = test system: RCSN-3 cells
RCSN-3 cells [3] = test system: RCSN-3 cells; remark: listed apart in the source
[4] = test system: MAO B activity in RCSN-3 cell lysates; test: MPP+ production by RCSN-3 cell lysates incubated with MPTP (HPLC); assay type: biochemical, rat
Experimental: To verify if RCSN-3 cells can produce MPP^+ from MPTP, lisates of RCSN-3 cells (differentiated and non-differentiated) were incubated with MPTP. Differentiation was induced by culturing in F10 media+2% adult bovine serum for one week. Non-differentiated conditions were attained with F10 media+10% adult bovine serum and 2.5% fetal bovine serum. Lisate buffer was PBS with 50 μM PMSF and a protease inhibiting cocktail (leupeptin, pepstatine, chemostatin). Samples were incubated with MPTP and MPP^+ for 15 min. at 37° C. HPLC studies were carried out in a SHIMADZU HPLC with […], reading at 245 nm. Results are shown in FIGS. 16A–C, FIGS. 17A–D, and FIGS. 18A–C.

[5] = biological target: T1, receptors for dihydropyridines (Homo sapiens, UniProt Q13698); test: dihydropyridine ([3H]PN200-110) binding to RCMH cells
T1 construct: endogenous in cells; host or cells: RCMH (immortalized human skeletal muscle cell line)
T1 sequence (Q13698 whole entry): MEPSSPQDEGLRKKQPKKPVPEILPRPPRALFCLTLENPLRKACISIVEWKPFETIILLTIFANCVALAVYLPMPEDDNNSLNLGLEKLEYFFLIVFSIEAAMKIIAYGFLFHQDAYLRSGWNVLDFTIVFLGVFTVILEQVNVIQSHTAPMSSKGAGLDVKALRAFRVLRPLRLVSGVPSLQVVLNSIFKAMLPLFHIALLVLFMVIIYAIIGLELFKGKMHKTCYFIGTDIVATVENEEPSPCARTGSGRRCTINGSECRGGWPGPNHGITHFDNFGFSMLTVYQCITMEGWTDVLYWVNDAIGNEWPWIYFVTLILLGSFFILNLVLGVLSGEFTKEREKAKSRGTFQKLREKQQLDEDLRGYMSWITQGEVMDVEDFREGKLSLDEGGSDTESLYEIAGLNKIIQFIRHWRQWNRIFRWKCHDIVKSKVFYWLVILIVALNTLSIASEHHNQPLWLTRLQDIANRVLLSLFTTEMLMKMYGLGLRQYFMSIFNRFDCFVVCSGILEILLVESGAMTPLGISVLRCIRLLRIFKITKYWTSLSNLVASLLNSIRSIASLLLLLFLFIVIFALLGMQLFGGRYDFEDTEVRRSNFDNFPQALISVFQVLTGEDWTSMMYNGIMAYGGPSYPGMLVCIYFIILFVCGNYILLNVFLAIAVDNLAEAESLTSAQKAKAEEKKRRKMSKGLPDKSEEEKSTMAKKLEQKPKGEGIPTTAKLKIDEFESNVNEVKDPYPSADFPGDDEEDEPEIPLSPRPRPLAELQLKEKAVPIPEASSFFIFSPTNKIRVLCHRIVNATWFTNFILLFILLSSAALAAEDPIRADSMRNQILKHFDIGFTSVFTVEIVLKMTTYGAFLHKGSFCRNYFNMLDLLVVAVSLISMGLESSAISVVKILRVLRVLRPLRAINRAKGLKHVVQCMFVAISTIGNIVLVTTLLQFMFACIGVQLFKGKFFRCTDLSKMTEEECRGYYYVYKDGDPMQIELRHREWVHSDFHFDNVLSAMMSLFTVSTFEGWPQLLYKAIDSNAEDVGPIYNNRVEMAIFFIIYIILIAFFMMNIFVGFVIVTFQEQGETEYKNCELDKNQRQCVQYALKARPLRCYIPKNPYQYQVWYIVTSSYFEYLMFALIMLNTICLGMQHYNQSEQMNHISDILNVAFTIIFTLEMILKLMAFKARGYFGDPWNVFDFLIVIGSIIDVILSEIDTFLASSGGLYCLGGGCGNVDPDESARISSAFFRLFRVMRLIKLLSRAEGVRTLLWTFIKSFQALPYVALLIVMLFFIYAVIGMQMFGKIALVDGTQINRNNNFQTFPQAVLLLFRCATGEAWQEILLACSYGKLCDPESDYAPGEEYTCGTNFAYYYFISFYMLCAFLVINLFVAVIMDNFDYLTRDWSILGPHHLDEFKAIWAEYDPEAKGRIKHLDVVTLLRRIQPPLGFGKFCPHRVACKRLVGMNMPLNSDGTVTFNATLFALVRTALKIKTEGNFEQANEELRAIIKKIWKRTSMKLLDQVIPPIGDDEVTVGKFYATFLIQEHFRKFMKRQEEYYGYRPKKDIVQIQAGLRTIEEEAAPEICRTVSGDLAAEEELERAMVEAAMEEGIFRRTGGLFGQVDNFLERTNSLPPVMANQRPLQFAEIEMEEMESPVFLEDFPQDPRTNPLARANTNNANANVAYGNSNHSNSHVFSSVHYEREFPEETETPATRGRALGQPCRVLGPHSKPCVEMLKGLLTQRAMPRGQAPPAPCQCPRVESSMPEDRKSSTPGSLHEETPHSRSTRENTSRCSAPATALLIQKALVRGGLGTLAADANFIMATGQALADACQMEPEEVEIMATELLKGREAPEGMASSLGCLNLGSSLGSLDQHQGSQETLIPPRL

[6] = biological target: microsomal fraction from RCVC cells (Rattus norvegicus, UniProt P22002); test: 3H-nitrendipine binding to microsomal fraction of RCVC cells; conditions: read-out: equilibrium dissociation constant
RCSN cells = test: intracellular Ca2+ imaging in Fluo-3 loaded RCSN cells; assay type: cell-based, rat; conditions: differentiated cells, 200 μM glutamate applied externally
UCHCC1 cells = assay type: cell-based, rat; conditions: read-out: half-maximal inhibitory concentration
[7] = biological target: single class of receptors for [3H]en-TTX; assay type: binding, rat
[8] = biological target: receptors for α-bungarotoxin (Homo sapiens, UniProt P02708+P07510+Q07001); assay type: binding
Chain of receptors for α-bungarotoxin (P02708 21-457 limits assumed): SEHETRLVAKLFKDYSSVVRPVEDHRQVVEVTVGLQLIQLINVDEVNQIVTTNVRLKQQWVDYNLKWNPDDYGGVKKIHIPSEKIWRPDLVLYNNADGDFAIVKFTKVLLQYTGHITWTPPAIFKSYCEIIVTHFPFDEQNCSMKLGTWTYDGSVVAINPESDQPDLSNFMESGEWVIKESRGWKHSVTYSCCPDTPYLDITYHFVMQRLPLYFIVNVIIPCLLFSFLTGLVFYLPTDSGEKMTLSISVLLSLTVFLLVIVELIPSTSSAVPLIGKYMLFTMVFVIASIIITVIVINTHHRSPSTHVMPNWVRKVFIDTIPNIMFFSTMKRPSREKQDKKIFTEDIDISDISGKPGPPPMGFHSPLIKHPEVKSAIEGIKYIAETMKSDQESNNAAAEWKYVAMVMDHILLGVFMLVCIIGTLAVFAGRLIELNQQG
Chain of receptors for α-bungarotoxin (P07510 23-517 limits assumed): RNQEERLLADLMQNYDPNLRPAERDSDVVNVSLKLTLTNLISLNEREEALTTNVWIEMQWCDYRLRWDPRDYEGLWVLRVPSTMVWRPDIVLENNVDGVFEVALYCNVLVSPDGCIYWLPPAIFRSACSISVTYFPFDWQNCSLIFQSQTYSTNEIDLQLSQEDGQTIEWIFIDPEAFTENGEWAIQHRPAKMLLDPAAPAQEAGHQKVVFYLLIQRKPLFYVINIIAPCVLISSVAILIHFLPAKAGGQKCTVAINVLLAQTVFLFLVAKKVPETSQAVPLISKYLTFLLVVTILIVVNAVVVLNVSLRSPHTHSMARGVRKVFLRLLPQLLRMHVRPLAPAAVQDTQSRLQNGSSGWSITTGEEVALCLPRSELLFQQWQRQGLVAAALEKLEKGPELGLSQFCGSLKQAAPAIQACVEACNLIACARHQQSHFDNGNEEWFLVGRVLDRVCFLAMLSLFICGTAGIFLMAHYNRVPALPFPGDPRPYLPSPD
Chain of receptors for α-bungarotoxin (Q07001 22-517 limits assumed): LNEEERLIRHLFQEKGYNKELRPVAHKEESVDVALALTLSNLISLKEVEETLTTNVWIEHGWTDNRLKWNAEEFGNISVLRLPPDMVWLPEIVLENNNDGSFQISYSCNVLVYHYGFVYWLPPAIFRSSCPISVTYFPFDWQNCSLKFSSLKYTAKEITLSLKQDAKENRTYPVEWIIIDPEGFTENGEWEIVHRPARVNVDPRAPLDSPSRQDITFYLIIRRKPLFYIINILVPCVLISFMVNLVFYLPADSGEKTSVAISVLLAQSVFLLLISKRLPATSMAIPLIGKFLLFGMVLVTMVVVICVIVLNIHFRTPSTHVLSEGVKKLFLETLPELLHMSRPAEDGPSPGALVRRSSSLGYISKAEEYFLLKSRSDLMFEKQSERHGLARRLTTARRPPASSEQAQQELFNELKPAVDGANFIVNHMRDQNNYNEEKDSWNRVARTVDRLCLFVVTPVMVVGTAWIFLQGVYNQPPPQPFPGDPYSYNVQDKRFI

Compound: COC(=O)C1=C(C)NC(C)=C([N+](=O)[O-])C1c1ccccc1C(F)(F)F (centres unmarked) [BAYK-8644]
- 45Ca2+ influx induced by calcium channel agonist (RCVC cells): equivalent influx

Compound: CCOC(=O)C1=C(C)NC2=C(C(=O)OC2)C1c1ccccc1OC(F)F (centres unmarked) [CGP-28392]
- 45Ca2+ influx induced by calcium channel agonist (RCVC cells): equivalent influx

Compound: N[C@@H](Cc1ccc(O)c(O)c1)C(=O)O [L-DOPA, levodopa]
- melanin, mean (RCSN-3 cells [1]; Glass): 0.03305
- melanin, mean (RCSN-3 cells [1]; Plastic): 0.04045
- melanin, Average (RCSN-3 cells [1]; glass dishes): 0.033
- melanin, Average (RCSN-3 cells [1]; plastic dishes): 0.040

Compound: C[n+]1ccc(-c2ccccc2)cc1 [MPP+, 1-methyl-4-phenylpyridinium]
- DNA fragmentation (TUNEL) (RCSN-3 cells [2]): fragmentation of DNA
- mitochondrial membrane potential (JC-1 fluorescence) (RCSN-3 cells [3]): affects mitochondrial function
- ratio of emission between JC-1 and J monomer, normalized to basal fluorescence (RCSN-3 cells [3]): significant differences from controls

Compound: CN1CC=C(c2ccccc2)CC1 [MPTP, 1-methyl-4-phenyl-1,2,3,6-tetrahydropyridine]
- production of MPP+ from MPTP [4]: no production of MPP^+

Compound: COC(=O)C1=C(C)NC(C)=C(C(=O)OC(C)C)C1c1cccc2nonc12 (centres unmarked) [[^3H]PN200-110]
- Bmax [5]: 0.3 pmol/mg protein
- Kd [5]: 0.5 nM

Compound: CCOC(=O)C1=C(C)NC(C)=C(C(=O)OC)C1c1cccc([N+](=O)[O-])c1 (centres unmarked) [^3H-nitrendipine, nitrendipine]
- Kd [6]: 0.7 nM

Compound: NCCc1ccc(O)c(O)c1 [dopamine]
- mitochondrial membrane potential (JC-1 fluorescence) (RCSN-3 cells [3]): decrease in membrane potential
- ratio of emission between JC-1 and J monomer, normalized to basal fluorescence (RCSN-3 cells [3]): significant differences from controls

Compound: N[C@@H](CCC(=O)O)C(=O)O [glutamate]
- cells responding with increases in Ca2+ (RCSN cells): up to 40%

Compound: [Mn+2] [manganese]
- mitochondrial membrane potential (JC-1 fluorescence) (RCSN-3 cells [3]): decrease in membrane potential
- ratio of emission between JC-1 and J monomer, normalized to basal fluorescence (RCSN-3 cells [3]): significant differences from controls

Compound: NC1=N[C@H](O)[C@H]2[C@H]3O[C@]4(O)O[C@@H]([C@@H](O)[C@@]2(N1)[C@@H]4O)[C@]3(O)CO [tetrodotoxin]
- IC50 (UCHCC1 cells): 0.9 nM

Compound: [^3H]ethylenediamine-tetrodotoxin [[^3H]en-TTX]
- Kd [7]: 1.1 nM
- maximal binding (Bmax) [7]: 173 fmol/mg protein

Compound: α-bungarotoxin
- Bmax [8]: 0.7 pmol/mg protein
- Kd [8]: 1.5 nM
